Source: patent US20230240297A1, “SELECTIVE HERBICIDES BASED ON SUBSTITUTED ISOXAZOLIN CARBOXAMIDES AND CYPROSULFAMIDE” (Bayer Aktiengesellschaft, priority 2020, published 2023)

What was measured:
Type in all cases: in vivo, maize
[1] = test system: ZEAMA Sileno; experiment: Tank-mix; post-emergence, crop damage with and without safener; settings: for HER effect + SAF / HER effect: Final assessment; for HER effect: no safener
Procedure, shortened: (§1)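 Crops in sandy loam in the greenhouse were sprayed at the 1–3-leaf stage, 2–3 weeks after sowing, with herbicide/safener combinations or the single actives at various dosages in 300 l/ha water. Injury was scored visually 1–3 weeks after treatment as % versus untreated plants (0% none, 100% complete kill).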

[2] = test system: ZEAMA Sileno; experiment: Treatment 1 day before (safener applied one day before herbicide, post-emergence); design: key to Reduction [Difference]: percentage points of visually scored % crop damage vs untreated control; settings: for Reduction [%] / Reduction [Difference]: cyprosulfamide 100 g a.i./ha 1 day before; for HER effect + SAF: cyprosulfamide 100 g a.i./ha applied 1 day before; for HER effect + SAF / HER effect: Final assessment; for HER effect: no safener
Excerpt: Seeds of crops (spring wheat, TRZAS; spring barley, HORVS; maize, ZEAMA) were placed in sandy loam soil in pots of a diameter of 7-8 cm, covered with soil, and cultivated in a greenhouse under good growth conditions until plants were at the 1-3 leaf stage (BBCH 11-13). For split safener and herbicide treatment, first the safener was applied followed by the herbicide treatment on the following day. The safener and herbicides were formulated as WP and sprayed onto the green parts of the plants as an aqueous suspension at an equivalent water application rate of 300 1/ha, with addition of wetting agent and adjuvants (e.g. Mero, 1.5 1/ha; ammonium sulphate, 2 kg/ha). An equivalent set of plants was treated with the herbicides but without the prior safener treatment.
(§2) After application, the test plants were kept in the greenhouse under good growth conditions. 10 and 21 days after treatment (DAT) with the herbicide, % crop damage observed on the treated plants was scored visually in comparison to control plants that had not received any safener or herbicide treatment.

[3] = test system: ZEAMA Sileno; experiment: Seed treatment with safener; pre-emergence herbicide application; settings: for Reduction [%] / Reduction [Difference]: cyprosulfamide 0.25 g a.i./kg seed; for HER effect + SAF: cyprosulfamide seed treatment 0.25 g a.i./kg seed; for HER effect: no safener
Procedure: For the safener seed treatment, sufficient seeds of the respective crops (spring wheat, TRZAS; spring barley, HORVS; maize, ZEAMA) were weighed into screw top glass bottles approximately twice the volume of the seeds.
The specified safeners, formulated as wettable powder (WP) were weighed out so that the specified rates (g a.i./kg seed) would be obtained, dissolved in water (1 ml water per 10 g of seeds), and added to the seeds to produce a slurry.
The bottles were capped and then placed in an overhead shaker (set at medium speed for ca. 60 minutes) so that the seeds were evenly coated with the slurry. The bottles were uncapped and the seeds were either placed on paper and dried for an interval of 3-4 hours prior to sowing, or directly sown. Seeds were placed in sandy loam soil in pots of a diameter of 7-8 cm, and covered with soil.
Pre-emergence application of the specified herbicides was done subsequently, on two sets of plants: • a) seed treatment with safener, as described above • b) no safener treatment
The herbicides were formulated as WP and was sprayed onto the soil surface as an aqueous suspension at an equivalent water application rate of 300 1/ha.
as §2, with “At intervals up to 4 weeks after application (=28” for “10 and 21”, “treatment; DAT),” for “treatment (DAT) with the herbicide,”
Values in the table below are mean values of at least 2 replicates.

[4] = test system: ZEAMA Sileno; experiment: Seed treatment with safener; post-emergence herbicide application; design: Reduction [Difference]: scale not given here; settings: Final assessment; for Reduction [%] / Reduction [Difference]: Cyprosulfamide 0.5 g a.i./kg seed; for Reduction [Difference]: damage without safener - damage with safener; for HER effect + SAF (crop damage with safener): Cyprosulfamide seed treatment 0.5 g a.i./kg seed; for HER effect (crop damage, herbicide without safener): no safener
Procedure, shortened: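 Maize seeds slurry-coated with WP safener (g a.i./kg seed) or left untreated, sown in sandy loam and grown in greenhouse. WP herbicide sprayed post-emergence at BBCH11-13 in 300 l/ha water with wetting agent and adjuvants (e.g. Mero 1.5 l/ha, ammonium sulphate 2 kg/ha); means of at least 2 replicates.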

[5] = test system: ZEAMA Abraxas; experiment: Tank-mix; post-emergence, crop damage with and without safener; settings: for Reduction [%] / Reduction [Difference]: cyprosulfamide 50 g a.i./ha; for HER effect + SAF / HER effect: Final assessment; for HER effect: no safener
Procedure, shortened: as §1

[6] = HER dose 2 g a.i./ha + cyprosulfamide 50 g a.i./ha tank-mix
[7] = HER dose 40 g a.i./ha pre-emergence, 14 DAT
[8] = HER dose 40 g a.i./ha pre-emergence, 26 DAT
[9] = HER dose 8 g a.i./ha + cyprosulfamide 50 g a.i./ha tank-mix
[10] = HER 8 g a.i./ha, cyprosulfamide 50 g a.i./ha
[11] = HER 32 g a.i./ha, cyprosulfamide 100 g a.i./ha
[12] = HER dose 80 g a.i./ha pre-emergence, 26 DAT

| Compound | Reduction [%] ([4]; HER dose 2 g a.i./ha) | Reduction [Difference] ([4]; HER dose 2 g a.i./ha) | HER effect + SAF (crop damage with safener) ([4]; HER dose 2 g a.i./ha) | HER effect (crop damage, herbicide without safener) ([4]; HER dose 2 g a.i./ha) | Reduction [%] ([4]; HER dose 8 g a.i./ha) | Reduction [Difference] ([4]; HER dose 8 g a.i./ha) | HER effect + SAF (crop damage with safener) ([4]; HER dose 8 g a.i./ha) | HER effect (crop damage, herbicide without safener) ([4]; HER dose 8 g a.i./ha) | Reduction [%] ([4]; HER dose 32 g a.i./ha) | Reduction [Difference] ([4]; HER dose 32 g a.i./ha) | HER effect + SAF (crop damage with safener) ([4]; HER dose 32 g a.i./ha) | HER effect (crop damage, herbicide without safener) ([4]; HER dose 32 g a.i./ha) | Reduction [%] ([5]; HER 2 g a.i./ha) | Reduction [Difference] ([5]; HER 2 g a.i./ha) | HER effect + SAF [5, 6] | HER effect ([5]; HER dose 2 g a.i./ha) | Reduction [%] ([2]; HER 32 g a.i./ha) | Reduction [Difference] ([2]; HER 32 g a.i./ha) | HER effect + SAF ([2]; HER dose 32 g a.i./ha) | HER effect ([2]; HER dose 32 g a.i./ha) | other results |
| --- | --- | --- | --- | --- | --- | --- | --- | --- | --- | --- | --- | --- | --- | --- | --- | --- | --- | --- | --- | --- | --- |
| C=CC1(C(=O)NC2COC(C(=O)OC)C2)CC(c2cc(F)cc(F)c2)=NO1 (mixture of isomers) [Example 1.68] | 83% | 50 | 10% | 60% | 74% | 73 | 25% | 98% | 69% | 68 | 30% | 98% | – | – | – | – | – | – | – | – | Reduction [%] ([1]; HER 2 g a.i./ha, cyprosulfamide 50 g a.i./ha): 67%; Reduction [Difference] ([1]; HER 2 g a.i./ha, cyprosulfamide 50 g a.i./ha, damage without safener - damage with safener): 40; HER effect + SAF [1, 6]: 20%; HER effect ([1]; HER dose 2 g a.i./ha, 0% = no injury, 100% = complete kill): 60%; Reduction [%] ([2]; HER 8 g a.i./ha): 69%; Reduction [Difference] ([2]; HER 8 g a.i./ha): 68; HER effect + SAF ([2]; HER dose 8 g a.i./ha): 30%; HER effect ([2]; HER dose 8 g a.i./ha): 98%; Reduction [%] ([3]; HER 40 g a.i./ha, 14 DAT): 41%; Reduction [Difference] ([3]; HER 40 g a.i./ha, 14 DAT): 38; Reduction [%] ([3]; HER 40 g a.i./ha, 26 DAT): 58%; Reduction [Difference] ([3]; HER 40 g a.i./ha, 26 DAT): 55; HER effect + SAF [3, 7]: 55%; HER effect + SAF [3, 8]: 40%; HER effect [3, 7]: 93%; HER effect [3, 8]: 95% |
| COC(=O)C1C=CC(NC(=O)C2(C)CC(c3cc(F)cc(F)c3)=NO2)C1 (stereo not shown) [Example 1.19] | – | – | – | – | 75% | 30 | 10% | 40% | 75% | 60 | 20% | 80% | 80% | 60 | 15% | 75% | 88% | 70 | 10% | 80% | – |
| COC(=O)C1C=CC(NC(=O)C2(C)CC(c3cc(F)cc(Cl)c3)=NO2)C1 (stereo not shown) [Example 1.21] | – | – | – | – | – | – | – | – | 71% | 25 | 10% | 35% | – | – | – | – | 57% | 20 | 15% | 35% | Reduction [%] ([5]; HER 8 g a.i./ha): 71%; Reduction [Difference] ([5]; HER 8 g a.i./ha): 25; HER effect + SAF [5, 9]: 10%; HER effect ([5]; HER dose 8 g a.i./ha): 35% |
| C=CC1(C(=O)NC2C=CC(C(=O)OC)C2)CC(c2cc(F)cc(F)c2)=NO1 (stereo not shown) [Example 1.26] | – | – | – | – | 74% | 42 | 15% | 57% | 71% | 67 | 27% | 94% | – | – | – | – | – | – | – | – | Reduction [%] [1, 10]: 70%; Reduction [Difference] [1, 10]: 40; Reduction [%] [1, 11]: 71%; Reduction [Difference] [1, 11]: 67; HER effect + SAF [1, 9]: 17%; HER effect ([1]; HER dose 8 g a.i./ha): 57%; HER effect + SAF ([1]; HER dose 32 g a.i./ha + cyprosulfamide 100 g a.i./ha tank-mix): 27%; HER effect ([1]; HER dose 32 g a.i./ha): 94%; Reduction [%] ([3]; HER 40 g a.i./ha, 26 DAT): 70%; Reduction [Difference] ([3]; HER 40 g a.i./ha, 26 DAT): 35; Reduction [%] ([3]; HER 80 g a.i./ha, 26 DAT): 57%; Reduction [Difference] ([3]; HER 80 g a.i./ha, 26 DAT): 40; HER effect + SAF [3, 8]: 15%; HER effect [3, 8]: 50%; HER effect + SAF [3, 12]: 30%; HER effect [3, 12]: 70% |
| CCCSCCOC(=O)C1C=CC(NC(=O)C2(C)CC(c3cc(F)cc(F)c3)=NO2)C1 (stereo not shown) [Example 1.34] | 100% | 20 | 0% | 20% | 80% | 40 | 10% | 50% | 78% | 35 | 10% | 45% | 50% | 25 | 25% | 50% | 44% | 20 | 25% | 45% | Reduction [%] ([2]; HER 8 g a.i./ha): 60%; Reduction [Difference] ([2]; HER 8 g a.i./ha): 30; HER effect + SAF ([2]; HER dose 8 g a.i./ha): 20%; HER effect ([2]; HER dose 8 g a.i./ha): 50% |
| CC1(C(=O)NC2C=CC(C(=O)OCCSC(F)(F)F)C2)CC(c2cc(F)cc(F)c2)=NO1 (stereo not shown) [Example 1.38] | 100% | 25 | 0% | 25% | 100% | 35 | 0% | 35% | 100% | 75 | 0% | 75% | 42% | 25 | 35% | 60% | 73% | 55 | 20% | 75% | – |
